Patent US5529999A, “Antitumor compositions and methods of treatment” (Eli Lilly and Company, priority 1994, dated 1996)
Values after ≈ are worked out from the molar mass of the structure shown.

The compounds below were run on CCRF-CEM cells (assay: growth inhibition / cytotoxicity against CCRF-CEM human leukemia cells in vitro). Details: serum-free UltraCHO media, 72 hours incubation, read-out: IC50 (concentration required for 50% inhibition of growth), CCRF-CEM.
Format: cell-based
Method: The in vitro data were obtained using CCRF-CEM cells, a human leukemia cell line. Foley et al., Cancer, 18:522 (1965). These cells were grown in albumin-free UltraCHO® media (BioWhittaker, Inc., Walkersville, Md.) using standard techniques. See, e.g., G. B. Grindey, et al., Journal of Molecular Pharmacology, 16:601 (1979). Dose-response curves were generated for various compounds to determine the concentration required for 50% inhibition of growth (IC50). Cluster plates were prepared in duplicate with the compound at various concentrations. Test compounds were dissolved initially in DMSO at a concentration of 4 mg/ml and further diluted with solvent to the desired concentration. Cells in serum-free UltraCHO media were added to the well at a final concentration of 4.8×10^4 cells/well in a total volume of 2.0 ml. After 72 hours of incubation (95% air, 5% CO2), cell numbers were determined on a ZBI Coulter counter. Cell number for indicated controls at the end of incubation was usually (4-6)×10^5 cells/well. Cell viability was also measured by staining with 3-[4,5-dimethylthiazol-2-yl]-2,5-diphenyl-tetrazolium bromide (MTT) using standard techniques. R. I. Freshney, Culture of Animal Cells: A Manual of Basic Technique, 253-254 (2d ed. 1987).
Column 1 refers to the example number of the compound tested; Column 2 depicts the in vitro cytoxicity against CCRF-CEM cells by relating the concentration of the test compound required for 50% inhibition of growth (IC50) of the cells in the well. The designation "CSQ" refers to the compound 4-amino-N-(5-chloro-2-quinoxalinyl)benzenesulfonamide and is used as a comparator.
`Nc1ccc(S(=O)(=O)Nc2cnc3c(Cl)cccc3n2)cc1` [CSQ, 4-amino-N-(5-chloro-2-quinoxalinyl)benzenesulfonamide, reference compound] gave an IC50 of 0.8 µg/mL (≈ 2.39 µM). Compound `CN(C)c1ccc(S(=O)(=O)Nc2cnc3cc(Cl)c(Cl)cc3n2)cc1` [Example 1, 4-N',N'-dimethylamino-N-(6,7-dichloro-2-quinoxalinyl)benzenesulfonamide] has an IC50 of 0.8 µg/mL (≈ 2.01 µM). With `CN(C)c1ccc(S(=O)(=O)Nc2cnc3c(Cl)cccc3n2)cc1` [Example 2, 4-N',N'-dimethylamino-N-(5-chloro-2-quinoxalinyl)benzenesulfonamide] the IC50 was 0.1 µg/mL (≈ 0.276 µM). `CN1CCc2cc(S(=O)(=O)Nc3cnc4c(Cl)cccc4n3)ccc21` [Example 3, N-(5-chloro-2-quinoxalinyl)-2,3-dihydro-1-methyl-1H-indole-5-sulfonamide] showed an IC50 of 0.3 µg/mL (≈ 0.8 µM). `O=S(=O)(Nc1cnc2c(Cl)cccc2n1)c1ccc2c(c1)CCO2` [Example 4, N-(5-chloro-2-quinoxalinyl)-2,3-dihydrobenzofuran-5-sulfonamide] gave an IC50 of 0.3 µg/mL (≈ 0.829 µM). `O=S(=O)(Nc1cnc2c(Cl)cccc2n1)c1ccc2occc2c1` [Example 5, N-(5-chloro-2-quinoxalinyl)benzofuran-5-sulfonamide] was tested, and the IC50 was 0.2 µg/mL (≈ 0.556 µM). In the case of `Cn1ccc2cc(S(=O)(=O)Nc3cnc4c(Cl)cccc4n3)ccc21` [Example 6, N-(5-chloro-2-quinoxalinyl)-1-methyl-1H-indole-5-sulfonamide], the IC50 is reported as 0.4 µg/mL (≈ 1.07 µM). `CN(C)c1ccc(S(=O)(=O)Nc2cnc3cc(Cl)ccc3n2)cc1` [Example 7, 4-N',N'-dimethylamino-N-(6-chloro-2-quinoxalinyl)benzenesulfonamide] was tested, and the IC50 was 1.2 µg/mL (≈ 3.31 µM). `CN1CCc2cc(S(=O)(=O)Nc3cnc4cc(Cl)ccc4n3)ccc21` [Example 8, N-(6-chloro-2-quinoxalinyl)-2,3-dihydro-1-methyl-1H-indole-5-sulfonamide] was tested, and the IC50 was 1.5 µg/mL (≈ 4 µM). `CN(C)c1ccc(S(=O)(=O)Nc2cnc3ccc(Cl)cc3n2)cc1` [Example 9, 4-(N',N'-dimethylamino)-N-(7-chloro-2-quinoxalinyl)benzenesulfonamide] gave an IC50 of 10.4 µg/mL (≈ 28.7 µM). `CN1CCc2cc(S(=O)(=O)Nc3cnc4ccc(Cl)cc4n3)ccc21` [Example 10, N-(7-chloro-2-quinoxalinyl)-2,3-dihydro-1-methyl-1H-indole-5-sulfonamide] was tested, and the IC50 was 10.8 µg/mL (≈ 28.8 µM). `CN(C)c1ccc(S(=O)(=O)Nc2cnc3cccc(Cl)c3n2)cc1` [Example 11, 4-N',N'-dimethylamino-N-(8-chloro-2-quinoxalinyl)benzenesulfonamide] gave an IC50 of 15.1 µg/mL (≈ 41.6 µM). With `CN(C)c1ccc(S(=O)(=O)Nc2cnc3c(Cl)c(Cl)ccc3n2)cc1` [Example 12, 4-N',N'-dimethylamino-N-(5,6-dichloro-2-quinoxalinyl)benzenesulfonamide] the IC50 was 7.2 µg/mL (≈ 18.1 µM). In the case of `O=S(=O)(Nc1cnc2c(Cl)c(Cl)ccc2n1)c1ccc2c(c1)CCO2` [Example 13, N-(5,6-dichloro-2-quinoxalinyl)-2,3-dihydrobenzofuran-5-sulfonamide], the IC50 is reported as 6 µg/mL (≈ 15.1 µM). `CN(C)c1ccc(S(=O)(=O)Nc2cnc3ccc(Cl)c(Cl)c3n2)cc1` [Example 14, 4-N',N'-dimethylamino-N-(7,8-dichloro-2-quinoxalinyl)benzenesulfonamide] gave an IC50 of 4.6 µg/mL (≈ 11.6 µM). Compound `O=S(=O)(Nc1cnc2ccc(Cl)c(Cl)c2n1)c1ccc2c(c1)CCO2` [Example 15, N-(7,8-dichloro-2-quinoxalinyl)-2,3-dihydrobenzofuran-5-sulfonamide] has an IC50 of 10.8 µg/mL (≈ 27.3 µM).
